Source: patent publication US20120010075A1 (priority 2009, published 2012)

Tested on: Leptosphaeria nodorum (LEPTNO)
Assay: In vitro fungitoxicity of hydrazones with and without copper towards Leptosphaeria nodorum (Example 26)
Type: cell-based
Settings: Parastagonospora nodorum, 72 h, compound 0.05 μg/mL, copper-minus medium, 72 h at 25° C.; read-out: LEPTNO % Inhn. Minus Copper Observed

SMILES	inhibition of growth at 0.05 µg/mL
O=C(N/N=C/c1cc(Cl)ccc1O)c1cccc([N+](=O)[O-])c1 [Example 10]	6.9%
O=C(N/N=C/c1cc(Cl)ccc1O)c1ccc([N+](=O)[O-])cc1 [Example 12]	0.5%
C/C(=N\NC(=O)Cc1ccc(F)cc1)c1cc(Cl)cc(Cl)c1O [Example 17]	9.4%
Cc1ccc(C(=O)N/N=C/c2cc(Cl)cc(Cl)c2O)c(C)c1 [Example 27]	16.5%
CC/C(=N\NC(=O)c1ccc(C)cc1C)c1ccccc1O [Example 30]	0%
O=C(N/N=C/c1cc(Cl)cc(Br)c1O)c1ccccc1Cl [Example 161]	7%
O=C(N/N=C/c1cc(Cl)cc(Br)c1O)c1cccc(Br)c1 [Example 163]	5.9%
O=C(N/N=C/c1cc(Cl)cc(Br)c1O)c1ccccc1F [Example 169]	2.7%
O=C(N/N=C/c1cc(Br)ccc1O)c1ccccc1Cl [Example 170]	0%
O=C(N/N=C/c1cc(Br)ccc1O)c1ccc(Cl)cc1 [Example 171]	4%
O=C(N/N=C/c1ccccc1O)c1ccc(Br)cc1 [Example 173]	8.3%
Cc1cccc(C(=O)N/N=C/c2ccccc2O)c1 [Example 174]	0%
O=C(N/N=C/c1ccccc1O)c1cccc(Cl)c1 [Example 175]	4.9%
O=C(N/N=C/c1cc(Br)ccc1O)c1cccc(Cl)c1 [Example 176]	8.8%
O=C(N/N=C/c1cc(Cl)ccc1O)c1cccc(Cl)c1 [Example 178]	8.5%
Cc1ccc(C(=O)N/N=C/c2cc(Br)ccc2O)cc1 [Example 179]	18.7%
Cc1ccc(C(=O)N/N=C/c2cc(Cl)ccc2O)cc1 [Example 180]	10.8%
O=C(N/N=C/c1cc(Cl)ccc1O)c1cccc(Br)c1 [Example 181]	16%
COc1cccc(C(=O)N/N=C/c2cc(Br)ccc2O)c1 [Example 185]	0%
COc1cccc(C(=O)N/N=C/c2cc(Cl)ccc2O)c1 [Example 188]	7.9%
O=C(N/N=C/c1cc(Cl)ccc1O)c1ccccc1Br [Example 190]	5.6%
O=C(N/N=C/c1cc(Cl)ccc1O)c1ccc(Br)cc1 [Example 191]	15.4%
O=C(N/N=C/c1cc(Cl)cc(Br)c1O)c1cccc(Cl)c1 [Example 192]	7.8%
O=C(N/N=C/c1cc(Cl)cc(Br)c1O)c1ccccc1Br [Example 193]	0%

Same assay, conditions: compound 0.05 μg/mL, copper-plus medium (CuCl2.2H2O), 72 h at 25° C.

SMILES	LEPTNO % Inhn. Plus Copper Observed
O=C(N/N=C/c1cc(Cl)ccc1O)c1cccc([N+](=O)[O-])c1 [Example 10]	97.2%
O=C(N/N=C/c1cc(Cl)ccc1O)c1ccc([N+](=O)[O-])cc1 [Example 12]	97.4%
C/C(=N\NC(=O)Cc1ccc(F)cc1)c1cc(Cl)cc(Cl)c1O [Example 17]	95.9%
Cc1ccc(C(=O)N/N=C/c2cc(Cl)cc(Cl)c2O)c(C)c1 [Example 27]	97.9%
CC/C(=N\NC(=O)c1ccc(C)cc1C)c1ccccc1O [Example 30]	97.0%
O=C(N/N=C/c1cc(Cl)cc(Br)c1O)c1ccccc1Cl [Example 161]	97.7%
O=C(N/N=C/c1cc(Cl)cc(Br)c1O)c1cccc(Br)c1 [Example 163]	98.0%
O=C(N/N=C/c1cc(Cl)cc(Br)c1O)c1ccccc1F [Example 169]	98.1%
O=C(N/N=C/c1cc(Br)ccc1O)c1ccccc1Cl [Example 170]	94.5%
O=C(N/N=C/c1cc(Br)ccc1O)c1ccc(Cl)cc1 [Example 171]	98.3%
O=C(N/N=C/c1ccccc1O)c1ccc(Br)cc1 [Example 173]	97.7%
Cc1cccc(C(=O)N/N=C/c2ccccc2O)c1 [Example 174]	97.0%
O=C(N/N=C/c1ccccc1O)c1cccc(Cl)c1 [Example 175]	97.9%
O=C(N/N=C/c1cc(Br)ccc1O)c1cccc(Cl)c1 [Example 176]	98.2%
O=C(N/N=C/c1cc(Cl)ccc1O)c1cccc(Cl)c1 [Example 178]	98.3%
Cc1ccc(C(=O)N/N=C/c2cc(Br)ccc2O)cc1 [Example 179]	98.0%
Cc1ccc(C(=O)N/N=C/c2cc(Cl)ccc2O)cc1 [Example 180]	95.1%
O=C(N/N=C/c1cc(Cl)ccc1O)c1cccc(Br)c1 [Example 181]	97.6%
COc1cccc(C(=O)N/N=C/c2cc(Br)ccc2O)c1 [Example 185]	95.2%
COc1cccc(C(=O)N/N=C/c2cc(Cl)ccc2O)c1 [Example 188]	96.5%
O=C(N/N=C/c1cc(Cl)ccc1O)c1ccccc1Br [Example 190]	95.7%
O=C(N/N=C/c1cc(Cl)ccc1O)c1ccc(Br)cc1 [Example 191]	98.1%
O=C(N/N=C/c1cc(Cl)cc(Br)c1O)c1cccc(Cl)c1 [Example 192]	94.7%
O=C(N/N=C/c1cc(Cl)cc(Br)c1O)c1ccccc1Br [Example 193]	95.1%

Tested on: not given
Assay: not given
Settings: not given

SMILES	melting point
O=C(N/N=C/c1cc(Cl)ccc1O)c1cccc([N+](=O)[O-])c1 [Example 10]	224 to 227 °C
O=C(N/N=C/c1cc(Cl)ccc1O)c1ccc([N+](=O)[O-])cc1 [Example 12]	259 to 262 °C
C/C(=N\NC(=O)Cc1ccc(F)cc1)c1cc(Cl)cc(Cl)c1O [Example 17]	209 to 213 °C
Cc1ccc(C(=O)N/N=C/c2cc(Cl)cc(Cl)c2O)c(C)c1 [Example 27]	246 to 247 °C
CC/C(=N\NC(=O)c1ccc(C)cc1C)c1ccccc1O [Example 30]	159 to 160 °C

Tested on: Phytophthora infestans
Assay: not given
Type: in vivo, Phytophthora infestans on tomato
Settings: hydrazone 50 ppm + 50 μM CuCl2.2H2O, applied 24 h before inoculation, assessed 7 days after inoculation, tomato

SMILES	TLB % Control
O=C(N/N=C/c1cc(Cl)ccc1O)c1cccc([N+](=O)[O-])c1 [Example 10]	96.0%
O=C(N/N=C/c1cc(Cl)ccc1O)c1ccc([N+](=O)[O-])cc1 [Example 12]	94.0%
C/C(=N\NC(=O)Cc1ccc(F)cc1)c1cc(Cl)cc(Cl)c1O [Example 17]	69.0%
Cc1ccc(C(=O)N/N=C/c2cc(Cl)cc(Cl)c2O)c(C)c1 [Example 27]	43.3%
CC/C(=N\NC(=O)c1ccc(C)cc1C)c1ccccc1O [Example 30]	40.7%
O=C(N/N=C/c1cc(Cl)cc(Br)c1O)c1ccccc1Cl [Example 161]	58.2%
O=C(N/N=C/c1cc(Cl)cc(Br)c1O)c1cccc(Br)c1 [Example 163]	87.7%
O=C(N/N=C/c1cc(Cl)cc(Br)c1O)c1ccccc1F [Example 169]	78.9%
O=C(N/N=C/c1cc(Br)ccc1O)c1ccccc1Cl [Example 170]	65.5%
O=C(N/N=C/c1cc(Br)ccc1O)c1ccc(Cl)cc1 [Example 171]	15.8%
O=C(N/N=C/c1ccccc1O)c1ccc(Br)cc1 [Example 173]	12.2%
Cc1cccc(C(=O)N/N=C/c2ccccc2O)c1 [Example 174]	72.7%
O=C(N/N=C/c1ccccc1O)c1cccc(Cl)c1 [Example 175]	80.0%
O=C(N/N=C/c1cc(Br)ccc1O)c1cccc(Cl)c1 [Example 176]	61.4%
O=C(N/N=C/c1cc(Cl)ccc1O)c1cccc(Cl)c1 [Example 178]	59.3%
Cc1ccc(C(=O)N/N=C/c2cc(Br)ccc2O)cc1 [Example 179]	35.1%
Cc1ccc(C(=O)N/N=C/c2cc(Cl)ccc2O)cc1 [Example 180]	43.9%
O=C(N/N=C/c1cc(Cl)ccc1O)c1cccc(Br)c1 [Example 181]	90.5%
COc1cccc(C(=O)N/N=C/c2cc(Br)ccc2O)c1 [Example 185]	54.6%
COc1cccc(C(=O)N/N=C/c2cc(Cl)ccc2O)c1 [Example 188]	74.6%
O=C(N/N=C/c1cc(Cl)ccc1O)c1ccccc1Br [Example 190]	70.9%
O=C(N/N=C/c1cc(Cl)ccc1O)c1ccc(Br)cc1 [Example 191]	29.8%
O=C(N/N=C/c1cc(Cl)cc(Br)c1O)c1cccc(Cl)c1 [Example 192]	84.2%
O=C(N/N=C/c1cc(Cl)cc(Br)c1O)c1ccccc1Br [Example 193]	80.0%
